Data taken from PubChem BioAssay AID330 (DTP/NCI, 2004).
Values joined by “and” are separate entries in the source; they are usually repeats but may differ in a detail not shown here. Equal values may be shown once. Toxic doses and inconclusive results are not listed.

Tested on: P388 leukemia ip, CD2F1 mice, survival T/C
Assay: NCI In Vivo Anticancer Drug Screen. Data for tumor model P388 Leukemia (intraperitoneal) in CD2F1 (CDF1) mice
Conditions: endpoint: median survival time, higher = longer survival
Procedure, shortened: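 Mice carrying the transplanted tumor received test compound or vehicle. Survival was recorded in each group, and the value is the treated-group measurement divided by that of the vehicle-treated control group.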

[1] = dose: 12.5 mg/kg/injection, schedule: Q01DX009 (ip), vehicle: saline with Tween-80
[2] = dose: 25.0 mg/kg/injection, schedule: Q01DX009 (ip), vehicle: saline with Tween-80
[3] = dose: 50.0 mg/kg/injection, schedule: Q01DX009 (ip), vehicle: saline with Tween-80
[4] = dose: 100.0 mg/kg/injection, schedule: Q01DX009 (ip), vehicle: saline with Tween-80
[5] = dose: 12.5 mg/kg/injection, schedule: Q01DX005 (ip), vehicle: saline with Tween-80
[6] = dose: 25.0 mg/kg/injection, schedule: Q01DX005 (ip), vehicle: saline with Tween-80
[7] = dose: 50.0 mg/kg/injection, schedule: Q01DX005 (ip), vehicle: saline with Tween-80
[8] = dose: 100.0 mg/kg/injection, schedule: Q01DX005 (ip), vehicle: saline with Tween-80
[9] = dose: 200.0 mg/kg/injection, schedule: Q01DX005 (ip), vehicle: saline with Tween-80
[10] = dose: 100.0 mg/kg/injection, schedule: Q01DX009 (ip), vehicle: Klucel (hydroxypropylcellulose) (HPC)
[11] = dose: 200.0 mg/kg/injection, schedule: Q01DX009 (ip), vehicle: saline with Tween-80
[12] = dose: 50.0 mg/kg/injection, schedule: Q01DX009 (ip), vehicle: saline
[13] = dose: 100.0 mg/kg/injection, schedule: Q01DX009 (ip), vehicle: saline
[14] = dose: 200.0 mg/kg/injection, schedule: Q01DX009 (ip), vehicle: saline
[15] = dose: 60.0 mg/kg/injection, schedule: Q01DX005 (ip), vehicle: Klucel (hydroxypropylcellulose) (HPC)
[16] = dose: 120.0 mg/kg/injection, schedule: Q01DX005 (ip), vehicle: Klucel (hydroxypropylcellulose) (HPC)
[17] = dose: 240.0 mg/kg/injection, schedule: Q01DX005 (ip), vehicle: Klucel (hydroxypropylcellulose) (HPC)
[18] = dose: 12.5 mg/kg/injection, schedule: Q01DX009 (ip), vehicle: water
[19] = dose: 25.0 mg/kg/injection, schedule: Q01DX009 (ip), vehicle: water
[20] = dose: 50.0 mg/kg/injection, schedule: Q01DX009 (ip), vehicle: water
[21] = dose: 200.0 mg/kg/injection, schedule: Q01DX009 (ip), vehicle: water

For `COc1n[n+]([O-])c(Cl)cc1[N+](=O)[O-]`, the T/C [1] was 109 % of control, the T/C [2] was 108 % of control and the T/C [3] was 117 % of control. For the same compound, the T/C [4] was 113 % of control.
With `CCCCN(CCCC)/N=N\N(CCCC)CCCC` the T/C [5] was 104 % of control and 93 % of control, the T/C [6] was 104 % of control and 90 % of control and the T/C [7] was 107 % of control and 93 % of control and 94 % of control. For the same compound, the T/C [8] was 98 % of control and 100 % of control and 97 % of control and the T/C [9] was 105 % of control.
`COc1cccc2cc(C)[nH]c12` was tested, and the T/C [2] was 97 % of control, the T/C [3] was 97 % of control and the T/C [4] was 103 % of control.
`CC(Cc1ccc2c(c1)OCO2)NN` (stereo unspecified) was tested, and the T/C (dose: 3.12 mg/kg/injection, schedule: Q01DX005 (ip), vehicle: saline) was 102 % of control, the T/C (dose: 6.25 mg/kg/injection, schedule: Q01DX005 (ip), vehicle: saline) was 96 % of control and the T/C (dose: 12.5 mg/kg/injection, schedule: Q01DX005 (ip), vehicle: saline) was 98 % of control.
In the case of `COc1cc2c(cc1C(C)c1cc(C(C)(C)C)c(O)c(C(C)(C)C)c1)OCO2` (stereo unspecified), the T/C [7] was 104 % of control, the T/C [8] was 100 % of control and the T/C [9] was 94 % of control.
With `Cc1c2[nH]c(C(=O)O)cc(=O)c2cc2c(=O)cc(C(=O)O)[nH]c12` the T/C [2] was 100 % of control, the T/C [3] was 99 % of control and the T/C [4] was 94 % of control.
`CSc1cccc(NC(=O)OCCOc2ccc(-c3ccccc3)cc2)c1` was tested, and the T/C [10] was 87 % of control.
`CCN(CC)Cc1cc(C)c(O)c(N=Nc2ccc3ccc4cccc5ccc2c3c45)c1C` was tested, and the T/C [1] was 94 % of control, the T/C [2] was 87 % of control and the T/C [3] was 99 % of control and 122 % of control and 90 % of control. The T/C [4] was 105 % of control and 118 % of control and 94 % of control, the T/C [11] was 100 % of control and 105 % of control and the T/C (dose: 400.0 mg/kg/injection, schedule: Q01DX009 (ip), vehicle: saline with Tween-80) was 107 % of control.
In the case of `O=S1(=O)CS(=O)(=O)OCCO1`, the T/C (dose: 3.12 mg/kg/injection, schedule: Q01DX005 (ip), vehicle: Klucel (hydroxypropylcellulose) (HPC)) was 124 % of control, the T/C (dose: 6.25 mg/kg/injection, schedule: Q01DX005 (ip), vehicle: Klucel (hydroxypropylcellulose) (HPC)) was 155 % of control and the T/C (dose: 9.0 mg/kg/injection, schedule: Q01DX005 (ip), vehicle: Klucel (hydroxypropylcellulose) (HPC)) was 162 % of control and 165 % of control. The T/C (dose: 12.5 mg/kg/injection, schedule: Q01DX005 (ip), vehicle: Klucel (hydroxypropylcellulose) (HPC)) was 216 % of control, the T/C (dose: 14.0 mg/kg/injection, schedule: Q01DX005 (ip), vehicle: Klucel (hydroxypropylcellulose) (HPC)) was 191 % of control (2×) and 200 % of control and the T/C (dose: 25.0 mg/kg/injection, schedule: Q01DX005 (ip), vehicle: Klucel (hydroxypropylcellulose) (HPC)) was 267 % of control and 270 % of control. For the same compound, the T/C (dose: 75.0 mg/kg/injection, schedule: Q01DX005 (ip), vehicle: Klucel (hydroxypropylcellulose) (HPC)) was 207 % of control and 588 % of control.
For `CC1C(=O)C(C)C(c2ccccc2Cl)OC1c1ccccc1Cl` (stereo unspecified), the T/C [12] was 112 % of control, the T/C [13] was 102 % of control and the T/C [14] was 96 % of control.
`CC1(C)CC2=NO[Se]3=C2C(=NO3)C1` was tested, and the T/C (dose: 1.56 mg/kg/injection, schedule: Q01DX009 (ip), vehicle: saline with Tween-80) was 104 % of control, the T/C (dose: 3.12 mg/kg/injection, schedule: Q01DX009 (ip), vehicle: saline with Tween-80) was 102 % of control and the T/C (dose: 6.25 mg/kg/injection, schedule: Q01DX009 (ip), vehicle: saline with Tween-80) was 104 % of control and 111 % of control. For the same compound, the T/C [1] was 117 % of control.
In the case of `NCCN.O=S(=O)([O-])[O-].[Cu+2].[OH3+].[OH3+]`, the T/C (dose: 6.25 mg/kg/injection, schedule: Q04DX002 (ip), vehicle: saline) was 100 % of control, the T/C (dose: 12.5 mg/kg/injection, schedule: Q04DX002 (ip), vehicle: saline) was 100 % of control and the T/C (dose: 25.0 mg/kg/injection, schedule: Q04DX002 (ip), vehicle: saline) was 100 % of control.
With `NS(=O)(=O)c1ccc(NC(=O)CN(C(=O)C(F)(F)F)C2CCCC2)cc1` the T/C (dose: 50.0 mg/kg/injection, schedule: Q01DX009 (ip), vehicle: Klucel (hydroxypropylcellulose) (HPC)) was 113 % of control, the T/C [10] was 109 % of control and the T/C (dose: 200.0 mg/kg/injection, schedule: Q01DX009 (ip), vehicle: Klucel (hydroxypropylcellulose) (HPC)) was 109 % of control.
`CC1([N+](=O)[O-])C(=O)C2(N3CCCC3)CCCC2C1c1ccccc1` (stereo unspecified) was tested, and the T/C [15] was 99 % of control, the T/C [16] was 91 % of control and the T/C [17] was 90 % of control.
`N#Cc1[nH]nc2nc[nH]c(=O)c12` was tested, and the T/C (dose: 100.0 mg/kg/injection, schedule: Q04DX002 (ip), vehicle: water) was 114 % of control and the T/C (dose: 200.0 mg/kg/injection, schedule: Q04DX002 (ip), vehicle: water) was 113 % of control.
In the case of `Nc1ccc(C(=O)Nc2ccc3cc(S(=O)(=O)O)cc(S(=O)(=O)O)c3c2)cc1`, the T/C (dose: 50.0 mg/kg/injection, schedule: Q01DX005 (ip), vehicle: saline) was 103 % of control, the T/C (dose: 100.0 mg/kg/injection, schedule: Q01DX005 (ip), vehicle: saline) was 99 % of control and the T/C (dose: 200.0 mg/kg/injection, schedule: Q01DX005 (ip), vehicle: saline) was 100 % of control.
With `CCO/C=C1\SC(=S)N(c2cccc(OC)c2)C1=O` the T/C [4] was 118 % of control, the T/C (dose: 117.0 mg/kg/injection, schedule: Q04DX003 (ip), vehicle: saline with Tween-80) was 113 % of control and the T/C (dose: 178.0 mg/kg/injection, schedule: Q04DX003 (ip), vehicle: saline with Tween-80) was 118 % of control. For the same compound, the T/C [11] was 118 % of control and the T/C (dose: 266.0 mg/kg/injection, schedule: Q04DX003 (ip), vehicle: saline with Tween-80) was 109 % of control.
With `CCC[CH2][Sn]([Cl])([Cl])[CH2]CCC.c1ccc(-c2nnc(-c3ccccn3)nc2-c2ccccc2)cc1` the T/C [15] was 106 % of control and the T/C [16] was 106 % of control.
For `Nc1ccccc1C(=O)Nc1ccc(Cl)cc1C(=O)O`, the T/C [12] was 101 % of control and the T/C [13] was 106 % of control.
For `NS(=O)(=O)c1cc(Cl)cc(Cl)c1O`, the T/C [3] was 100 % of control and the T/C [4] was 120 % of control.
`C=CCc1ccc(OCCN(CC)CC)c(OC)c1` was tested, and the T/C [5] was 117 % of control, the T/C [6] was 113 % of control and the T/C [7] was 98 % of control.
`COCC(CC(=O)O)C(C(=O)O)C(=O)O` (stereo unspecified) was tested, and the T/C [18] was 100 % of control, the T/C [19] was 106 % of control and the T/C [20] was 106 % of control. The T/C (dose: 100.0 mg/kg/injection, schedule: Q01DX009 (ip), vehicle: water) was 93 % of control and the T/C [21] was 92 % of control.
In the case of `O=C1C2=C(Nc3cc([N+](=O)[O-])ccc3N2)OC1c1ccc(Cl)cc1Cl` (stereo unspecified), the T/C (dose: 30.0 mg/kg/injection, schedule: Q01DX005 (ip), vehicle: Klucel (hydroxypropylcellulose) (HPC)) was 101 % of control, the T/C [15] was 89 % of control and 94 % of control and the T/C [16] was 99 % of control. The T/C [17] was 111 % of control.
For `CCOP(=O)(CCCCN1C(=O)c2ccccc2C1=O)OCC`, the T/C [13] was 100 % of control, the T/C [14] was 100 % of control and the T/C (dose: 400.0 mg/kg/injection, schedule: Q01DX009 (ip), vehicle: saline) was 100 % of control.
In the case of `COC1=CC(=O)C(CO)=CC1=O`, the T/C (dose: 3.12 mg/kg/injection, schedule: Q01DX009 (ip), vehicle: saline) was 104 % of control, the T/C (dose: 6.25 mg/kg/injection, schedule: Q01DX009 (ip), vehicle: saline) was 103 % of control and 104 % of control and the T/C (dose: 12.5 mg/kg/injection, schedule: Q01DX009 (ip), vehicle: saline) was 104 % of control and 91 % of control.
In the case of `Cc1cc(NN=O)nc(C)n1`, the T/C (dose: 3.12 mg/kg/injection, schedule: Q01DX009 (ip), vehicle: water) was 98 % of control, the T/C (dose: 6.25 mg/kg/injection, schedule: Q01DX009 (ip), vehicle: water) was 98 % of control and the T/C [18] was 98 % of control. For the same compound, the T/C [19] was 100 % of control and 101 % of control, the T/C [20] was 104 % of control and 106 % of control and the T/C [21] was 166 % of control.
`O=C1OC(C(Cl)(Cl)Cl)Nc2ccccc21` (stereo unspecified) was tested, and the T/C (dose: 50.0 mg/kg/injection, schedule: Q01DX005 (ip), vehicle: Klucel (hydroxypropylcellulose) (HPC)) was 111 % of control and the T/C (dose: 100.0 mg/kg/injection, schedule: Q01DX005 (ip), vehicle: Klucel (hydroxypropylcellulose) (HPC)) was 111 % of control.
`CCCCN(CC)CC(CC)Nc1cc(OC)cc2cccnc12` (stereo unspecified) was tested, and the T/C [7] was 102 % of control, the T/C [8] was 95 % of control and the T/C [9] was 101 % of control.
